Patent publication US11478466B2, “Small molecule promoting osteoblast differentiation” (Cornell University, priority 2019, dated 2022)

Assays:
Assay type in all cases: cell-based, mouse
[1] = test system: alkaline phosphatase (ALP); assay: ALP expression staining in C2C12 cells; conditions: C2C12, 2 days, 10 μM
Method: C2C12 cells were treated for 2 days with 10 μM DIPQUO or structural analogs, 1 ng/ml rhBMP4, or with inhibitors as noted in figure legends, and then fixed briefly in 70% acetone/10% formaldehyde/20% citrate. Staining was achieved using the leukocyte alkaline phosphatase kit (Sigma 86R-1KT) according to the manufacturer's instructions. Expression of ALP was confirmed and quantified by flow cytometric analysis, using an Accuri C6 flow cytometer. Briefly, control- or DIPQUO-treated C2C12 cells were detached and harvested on day 2 using PBS-based enzyme-free cell detachment solution (ThermoFisher). 2×10^5 cells were incubated on ice for 30 minutes with 10 μl APC-conjugated ALPL antibody (R&D Systems), and washed in ice-cold PBS before analysis. Live cells were gated and analyzed in CFlow Plus software and then data was converted to FlowJo to achieve publication-level resolution. For siRNA experiments, gene-specific oligonucleotides were obtained for mouse p38-alpha (Cell Signaling) and p38-beta (Santa Cruz). Signal Silence scramble siRNA control oligonucleotide was purchased from Cell Signaling. C2C12 cells at 70% confluency were transfected in 12-well plates using Lipofectamine RNAiMax reagent (Invitrogen) according to manufacturer's instructions. Transfected cells were treated 24 hours later with DMSO or 10 μM DIPQUO, and siRNA transfection was repeated after 48 hours without changing culture media. After an additional 3 days, cells were either fixed and stained for ALP expression or analyzed for ALP activity using the AttoPhos Substrate kit. Hemagglutinin and FLAG epitope-tagged MKK3 (pMT2-HA-MKK3) and MKK6 (pcDNA3-FLAG-MKK6) constructs were obtained from Addgene and transfected into C2C12 cells using Lipofectamine LTX with Plus Reagent (ThermoFisher) according to manufacturer's instructions and cell extracts analyzed for protein expression and activity as described below.

C2C12 cells = assay: qRT-PCR of osteoblast differentiation transcripts in C2C12 cells; conditions: C2C12, 10 μM
Method: For quantitative RT-PCR analysis of gene expression in C2C12 cultures, cells were treated for 2 days with 10 μM DIPQUO and harvested into Trizol reagent (Invitrogen). One microgram of RNA was reverse transcribed using the VILO-RT kit (Invitrogen) to generate cDNA, which was diluted 1:25 in RNase-free H2O for qPCR with Sybr green using the Roche 480 II LightCycler and the 2^−ΔΔCT method (Livak and Schmittgen, 2001). For analysis of osteoclast gene expression, RAW 264.7 cells were treated with DMSO, 50 ng/ml RANKL, or 10 μM DIPQUO for 4 days, then harvested into Trizol reagent and processed as above. Mouse qPCR primers are as follows. Runx2: F([…]) (SEQ ID NO:1); R([…]) (SEQ ID NO:2); Dlx5: F([…]) (SEQ ID NO:3); R([…]) (SEQ ID NO:4); Osterix: F([…]) (SEQ ID NO:5); R([…]) (SEQ ID NO:6); ALP: F([…]) (SEQ ID NO:7); R([…]) (SEQ ID NO:8); Osteocalcin: F([…]) (SEQ ID NO:9); R([…]) (SEQ ID NO:10); Osteoactivin: F([…]) (SEQ ID NO:11); R([…]) (SEQ ID NO:12); CTSK: F([…]) (SEQ ID NO:13); R([…]) (SEQ ID NO:14); MMP9: F([…]) (SEQ ID NO:15); R([…]) (SEQ ID NO:16); Gapdh F([…]) (SEQ ID NO:17); R([…]) (SEQ ID NO:18). RNA-seq studies were carried out with the assistance of the Weill Cornell Genomics Core Facility, using the Illumina HiSeq4000 next-generation sequencer to generate reads from cDNA libraries generated from three biological replicates of day 2 DMSO- or DIPQUO-treated C2C12 cells. Gene sets were clustered by biological/disease function using Ingenuity Pathway Analysis (Qiagen Bioinformatics). Heatmaps with hierarchical clustering were generated in R using the CRAN package for a subset of genes involved in bone morphogenesis. Following normalization of the RNA Sequencing counts in DeSeq, z-scores were computed across samples within each gene for use in the heatmap. The accession number for the sequencing data reported in this paper is NCBI GEO: GSE125052.

JNK p54 = assay: Western blotting of JNK in C2C12 cells
Method: Whole cell extracts were collected from C2C12 or BRITER cells in complete lysis buffer (20 mM Tris, 150 mM NaCl, 50 mM NaF, 1% NP40 substitute, HALT protease inhibitor cocktail (ThermoScientific). Proteins were resolved by electrophoresis on pre-cast 10% NuPage Bis-Tris gels (Invitrogen) and transferred to PVDF membranes (Bio-Rad). Membranes were blocked in 5% BSA-TBS-0.5% Tween-20 for 15 minutes, then incubated at 4° overnight with primary antibodies. Antibodies used were: rabbit anti-phospho-p38 MAPK (cat. no. 9211), anti-p38 MAPK XP (8690), anti-phospho-SMAD1/5 (9516), anti-SMAD1 XP (6944), anti-phospho-SMAD2/3 (8828), anti-SMAD2/3 XP (8685), anti-phospho-JNK (4668), anti-SAPK/JNK (9252), anti-phospho-Akt XP (4060), pan anti-Akt (4691), anti-phospho ERK p42/p44 (4377), anti-ERK p42/p44 (9102), anti-phospho-MKK3/6 (12280), anti-MKK3 (8535), anti-phospho-TAK1 (4531), anti-TAK1 (5206), anti-HA (3274), and anti-FLAG (14793); all from Cell Signaling); and mouse anti-p38α (cat. no. 33-1300), anti-p38β (33-8700; both ThermoFisher) and anti-β-actin (Sigma A1978). Proteins were visualized with HRP-conjugated secondary antibodies (Bio-Rad) with WestPico (ThermoFisher) or Immobilon (Millipore) chemiluminescence reagents. Images were obtained and analyzed for relative densitometric relationships on a LI-COR C-DiGit scanner using Image Studio software.

p38-α = assay: Isoform-specific immunoprecipitation, p38-α activity in C2C12 cells; conditions: C2C12, 10 μM DIPQUO
Description: There are four separate p38 isoforms: α, β, γ, and δ. The respective roles of the α and β isoforms in bone differentiation have been dissected to the extent that p38-β is known to be involved specifically in skeletogenesis (Greenblatt et al., 2010), while p38-α has roles that are both wide-ranging and highly specific, for instance in dentition (Greenblatt et al., 2015). Accordingly, we used small interfering RNA-mediated knockdown to probe the specificity of DIPQUO to block the activity of one or the other isoform (FIG. 6E). […] To confirm the biological significance of this observation, the α and β isoforms were immunoprecipitated from C2C12 cells and analyzed for relative activity levels.

In the case of `Cc1cc(C)c2[nH]c(=O)c(-c3[nH]cnc3-c3ccccc3)cc2c1` [RU-0226606, 6,8-dimethyl-3-(4-phenyl-1H-imidazol-5-yl)quinolin-2(1H)-one], the “ALP expression by staining” value [1] is reported as “rapidly stimulate ALP expression within 2 days”, the “changes in expression of OCN and Osteoactivin (qRT-PCR)” value (C2C12 cells; 2 days, compared with BMP-treated positive controls) is reported as “much higher with DIPQUO treatment than in BMP-treated positive controls” and the “expression of Runx2 and Osterix (qRT-PCR)” value (C2C12 cells; 2 days, vs DMSO) is reported as “significant upregulation”. The “expression of ALP and OCN (qRT-PCR)” value (C2C12 cells; day 2, vs DMSO) was “substantially increased by day 2”, the “JNK p54 signaling” value (JNK p54) was “suppressed the p54 isoform” and the “p38-α isoform activity after immunoprecipitation” value (p38-α) was “suppressed”.
